How the values were obtained:
lactating dairy cow = assay: Vitamin E tolerated dose extrapolated to lactating dairy cow; assay type: in vivo; settings: 500 kg lactating dairy cow, extrapolated from chicks
Description: Vitamin E has a toxic effect only at very high dosages. In growing chicks, daily intake of 1000 IU/kg of body weight is without negative effects. Corresponding dietary dose in a 500 kg lactating dairy cow would be 500 000 IU/d which far exceeds the effective dose range in this invention as described before.

growing chicks = settings: cited from earlier work
[1] = test system: multiparous Holstein cows; assay: Animal study of dietary addition of vitamin E to an oilseed diet: milk production and milk fatty acid profile; assay type: in vivo, cow; settings: result in words
Procedure: The effect of Vitamin E addition in the diet on milk fat depression as well as on the biohydrogenation shift from trans-11 to trans-10 fatty acids classically observed upon feeding of high doses of unsaturated fatty acids, was tested in vivo with six multiparous Holstein cows that yielded more than 25 kg milk/d.
A Latin square experimental design consisting of three groups of two cows, three periods of four weeks and three diets (control, oilseed and oilseed+tocopheryl-acetate) was followed. For all groups, the mixed basal diet consisted, in dry matter terms, of 30% grass silage, 46% corn silage, 13% dried sugar beet pulp, 10% soybean meal and 1% mineral & vitamin mixture. The oilseed concentrate consisted of 50% barley, 25% rapeseed and 25% linseed, whereas its control counterpart was made of 50% barley, 25% rapeseed meal and 25% linseed meal.
The amounts of oilseeds concentrate offered were calculated to provide approximately 550 g/d of supplemental lipids. In addition, cows fed oilseed diet plus Vitamin E received 9600 IU of the vitamin per day, together with the oilseed concentrate.
Milk weights were automatically recorded daily at each milking. Milk samples were taken during the last week of each period and analysed for crude protein, fat and fatty acid profile. Quantification of the trans-C18:1 and CLA isomers was performed by gas chromatography as described in Griinari et al. (1998).

CC(=O)Oc1c(C)c(C)c2c(c1C)CCC(C)(CCC[C@H](C)CCC[C@H](C)CCCC(C)C)O2 (mixture of isomers) [vitamin E, all-rac-α-tocopheryl acetate]
corresponding dietary dose without negative effects (lactating dairy cow): 500 000 IU/d | daily intake without negative effects (growing chicks): 1000 IU/kg of body weight | CLA content (cis-9, trans-11 C18:2) of milk fat [1]: increased CLA content dramatically | level of trans-10 C18:1 in milk fat [1]: decreased to control levels | level of trans-11 C18:1 in milk fat [1]: increased significantly | levels of C4:0 to C16:0 saturated fatty acids in milk [1]: no major impact | levels of stearic acid (C18:0) in milk [1]: no major impact | milk fat yield [1]: complete recovery | shift in the ruminal biohydrogenation process (trans-11 to trans-10) [1]: completely abolished | total monounsaturated C18 (C18:1) fatty acids in milk [1]: no major impact
